From patent US20100068184A1, “LIVING BODY HEALING ACCELERATOR” (AUREO CO., LTD., priority 2006, published 2010)

Tests used:
[1] = test system: mouse carrying diabetes caused by streptozotocin; experiment: Test for accelerating normalization of a blood glucose level; type: in vivo, mice; conditions: 200 mg/kg intraperitoneal (positive control group)
Experimental: The test was performed by using mice, in each of which a diabetes was induced by streptozotocin, and also by comparing blood glucose levels before and after administration of test samples. In Table 3, the “normal group” indicates a blood glucose level in the normal state where treatment with streptozotocin is not performed. On the other hand, the “negative control group” indicates a blood glucose level in a mouse in which diabetes was generated by being subjected to treatment with streptozotocin. The “positive control group” indicates a blood glucose level when tolbutamide which was an accelerator of insulin secretion (200 mg/kg) was administered to a mouse carrying diabetes caused by streptozotocin. The “test A group” and “test B group” each indicates a blood glucose level when each of the Aureobasidium culture solution (2 g/kg and 10 g/kg) was administered to a mouse carrying diabetes caused by streptozotocin. It is to be noted that each sample was intrapenitoreally administered.
FIG. 6 is plotted with the ordinate axis indicating a blood glucose level and with the abscissa axis indicating treatment performed to each group of the tested mice. A left bar in each group represents an average value of blood glucose levels before administration of the test sample, while a right bar represent an average value of blood glucose levels after administration of the test sample.

sarcoma = experiment: Sarcoma-implanted mice: change in tumor volume; type: in vivo; conditions: 5-FU 20 mg/kg/day oral in drinking water (group A), vs control group
Experimental: The above result obviously indicates the characteristics of the treatment with an anticancer drug, and in this type of treatment, the anticancer drug can suppress growth of a tumor, but normal cells are damaged by toxicity of the anticancer drug. This negative aspect spoils the positive result of the treatment with an anticancer drug. […] The dose of 2 g/kg/day corresponds to 30 mg/kg/day in administration with respect to the solid content (1.5%).

[2] = test system: leukemia-originated tumor cell P388; experiment: Anti-leukemia test (survival rate); type: in vivo, mice; conditions: group A, 5-FU 2.0 mg/kg oral, 40 days after implantation
Experimental: The test was carried out according to the ordinary method by using mice each with the leukemia-originated tumor cell P388 implanted therein and also by comparing survival rates of the mice after the test samples were administered. Just after the tumor was implanted, each test sample was orally administered by mixing the sample in water in a bottle for drinking water and making the mice freely drink the water. […] 10 mice were used for one test sample group.

SMILES	descent percentage of blood glucose level [1]	volume of the tumor (sarcoma)	survival rate [2]
CCCCNC(=O)NS(=O)(=O)c1ccc(C)cc1 [tolbutamide]	17.4%		
O=c1[nH]cc(F)c(=O)[nH]1 [5-FU, 5-fluorouracil]		significantly restrained	80%
